{
  "source": "paper PMC11403612",
  "about": "“Preparation and Preclinical Characterization of a Simple Ester for Dual Exogenous Supply of Lactate and Beta-hydroxybutyrate” (Journal of Agricultural and Food Chemistry, 2024)",
  "key": {"[1]": {"experiment": "Hepatocyte stability of LaKe, human", "format": "in vitro ADME", "settings": "cryopreserved hepatocytes"}, "[2]": {"experiment": "Microsomal stability of LaKe, rat", "format": "in vitro ADME, SD Rat", "procedure": "The in vitro stability of LaKe was evaluated following incubation in simulated gastric fluid (SGF), simulated intestinal fluid (SIF), fresh and frozen plasma (rats and humans, respectively), and the presence of hepatocytes (rats and humans) and liver microsomes (rats and humans). At the chosen time points, the mixtures were analyzed by LC-MS/MS to quantify the remaining LaKe and all assays included at least one control compound with known pharmacokinetic properties.\nHepatocyte stability of LaKe\nCells: Rat hepatocytes (BioreclamationIVT, M0005); Human hepatocytes (BioreclamationIVT, X008001) Thawing Medium: Williams’ Medium E containing 5% fetal bovine serum and 30% Percoll solution and other […]\nIncubation Medium: Williams’ Medium E (no phenol red) containing 2 mM L-Glutamine and 25 mM HEPES.\nStop Solution: Acetonitrile containing 200 ng/mL tolbutamide and labetalol as internal standards.\nDilution Solution: Ultra-pure water.\nPreparation of Quenching Plate: Transfer 125 μL of stop solution (acetonitrile containing 200 ng/mL tolbutamide and 200 ng/mL labetalol as internal standards) in a set of pre-labeled 96-well plates.\nCryopreserved cells were thawed, isolated and suspended in Incubation Medium, then diluted with pre-warmed Incubation Medium to 0.5 × 10^6 cells/mL. 198 μL of pre-warmed cell suspensions were added in 96-well plates. […]"}},
  "data": [
    {"smiles": "CC(O)CCOC(=O)C(C)O", "note": "(stereo not drawn) [LaKe, 3-hydroxybutyl 2-hydroxypropanoate]", "values": [
      {"measurement": "half-life at 0.1 mg/mL", "setting": "[1]", "value": "< 30", "unit": "min"},
      {"measurement": "turnover in liver microsomes", "setting": "[2]; presence of NADPH", "value": "underwent turnover"},
      {"measurement": "LaKe remaining", "setting": "[2]; rat liver microsomes, absence of NADPH, after 60 min", "value": 55, "unit": "%"}
    ]}
  ]
}
